Source: patent US20240308968A1, “FUNGICIDAL SUBSTITUTED HETEROCYCLES” (FMC Corporation, priority 2021, published 2024)

Columns and labels:
Zymoseptoria tritici = experiment: Test A: preventive spray on wheat seedlings, wheat leaf blotch disease rating; format: in vivo; conditions: 100 = 100% disease control, 0 = no control; for pest or weed control at 50 ppm: Zymoseptoria tritici, 456 h
How it was run: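 Disease scored after 17 days in a 20 °C growth chamber, following 48 h at 24 °C in saturated air after spore inoculation with Z. tritici. Inoculation came one day after wheat seedlings were sprayed to run-off with test suspension (acetone/water 50/50, 50–250 ppm PEG400).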

[1] = test system: Blumeria graminis f. sp. Tritici; experiment: Test C: preventive spray on wheat seedlings, wheat powdery mildew disease rating; format: in vivo; conditions: 100 = 100% disease control, 0 = no control; for pest or weed control at 50 ppm: Blumeria graminis, 192 h
How it was run: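 Disease control scored visually after 8 days at 20° C, on a 0–100 scale versus untreated controls. Seedlings had received a preventive run-off spray one day before dusting with powdery mildew spores; compounds were suspended in acetone/water (50/50) containing 50–250 ppm PEG400.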

Phakopsora pachyrhizi = experiment: Test D: preventive spray on soybean seedlings, Asian soybean rust disease rating; format: in vivo; conditions: 100 = 100% disease control, 0 = no control; for pest or weed control at 50 ppm: Phakopsora pachyrhizi, 216 h
How it was run: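 Seedlings of soybean were challenged with rust spores one day after a run-off spray of test suspension (acetone/water 50/50, 50–250 ppm PEG400); after 24 h saturated humidity and 8 days growth, both at 22° C, disease was scored visually.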

[2] = test system: Puccinia recondita f. sp. Tritici; experiment: Test B: preventive spray on wheat seedlings, wheat leaf rust disease rating; format: in vivo; conditions: 100 = 100% disease control, 0 = no control; for pest or weed control at 50 ppm: Puccinia recondita, 192 h
How it was run: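 Preventive test: one day after spraying wheat seedlings to run-off with ppm suspensions (acetone/water 1:1, 50-250 ppm PEG400), leaf rust spores were applied. Incubation was 24 h at saturation then 7 days at 20° C.; disease scored 0-100% control relative to untreated.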

Alternaria solani = experiment: Test F: preventive spray on tomato seedlings, tomato early blight disease rating; format: in vivo; conditions: 100 = 100% disease control, 0 = no control; for pest or weed control at 50 ppm: Alternaria solani, 120 h
How it was run: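 Preventive test: a day after run-off spraying with acetone/water–PEG400 suspensions (ppm), seedlings received an A. solani spore inoculum. Incubation was 48 h at 27 °C in saturated air followed by 3 days in a 20 °C chamber. Visual scores express percent disease control versus untreated plants (0–100).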

Botrytis cinerea = experiment: Test E: preventive spray on tomato seedlings, tomato Botrytis disease rating; format: in vivo; conditions: 100 = 100% disease control, 0 = no control; for pest or weed control at 50 ppm: Botrytis cinerea, 120 h
How it was run: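 Preventive test: one day after spraying seedlings to run-off with test suspension (ppm in acetone/water, 50–250 ppm PEG400), B. cinerea spores applied. Incubation 48 h at 20 °C saturated humidity plus 3 days at 24 °C preceded visual rating as percent disease control versus controls.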

melting point	Structure (SMILES)	pest or weed control at 50 ppm (Zymoseptoria tritici; 50 ppm)	pest or weed control at 50 ppm ([1]; 50 ppm)	pest or weed control at 50 ppm (Phakopsora pachyrhizi; 50 ppm)	pest or weed control at 50 ppm ([2]; 50 ppm)	pest or weed control at 50 ppm (Alternaria solani; 50 ppm)	pest or weed control at 50 ppm (Botrytis cinerea; 50 ppm)	Test A disease control rating (Zymoseptoria tritici; 50 ppm)	Test C disease control rating ([1]; 50 ppm)	Test D disease control rating (Phakopsora pachyrhizi; 50 ppm)	Test B disease control rating ([2]; 50 ppm)	Test F disease control rating (Alternaria solani; 50 ppm)	Test E disease control rating (Botrytis cinerea; 50 ppm)	also measured
100 to 103 °C	CCn1c(-c2ccc(F)cc2Cl)c(-c2cc(OC)cc(OC)c2Cl)cc(C#N)c1=O [Compound 157, 5-(2-chloro-3,5-dimethoxyphenyl)-6-(2-chloro-4-fluorophenyl)-1,2-dihydro-1-ethyl-2-oxo-3-pyridinecarbonitrile]	100%	96%	97%	100%	98%	99%	–	–	–	–	–	–	–
209 to 211 °C	COc1cc(OC)c(Cl)c(-c2cc(C#N)c(=O)n(C)c2-c2ccc(F)cc2Cl)c1 [Compound 156, 5-(2-chloro-3,5-dimethoxyphenyl)-6-(2-chloro-4-fluorophenyl)-1,2-dihydro-1-methyl-2-oxo-3-pyridinecarbonitrile]	100%	98%	99%	100%	91%	98%	–	–	–	–	–	–	–
207 to 210 °C	COc1ccc(Cl)c(-n2nc(C)c(=O)c(Cl)c2-c2ccc(F)cc2)c1 [Compound 105, 5-chloro-1-(2-chloro-5-methoxyphenyl)-6-(4-fluorophenyl)-3-methyl-4(1H)-pyridazinone]	100%	95%	96%	100%	100%	98%	–	–	–	–	–	–	–
191 to 194 °C	COc1cc(OC)c(Cl)c(-n2nc(Br)c(=O)c(C)c2-c2ccc(F)cc2Cl)c1 [Compound 94, 3-bromo-6-(2-chloro-4-fluorophenyl)-1-(2-chloro-3,5-dimethoxyphenyl)-5-methyl-4(1H)-pyridazinone]	100%	100%	100%	100%	100%	98%	–	–	–	–	–	–	–
171 to 173 °C	CCn1c(-c2c(F)cc(F)cc2F)c(-c2cc(OC)cc(OC)c2Cl)cc(C#N)c1=O [Compound 70, 5-(2-chloro-3,5-dimethoxyphenyl)-1,2-dihydro-1-ethyl-2-oxo-6-(2,4,6-trifluorophenyl)-3-pyridinecarbonitrile]	100%	99%	100%	100%	98%	96%	–	–	–	–	–	–	–
180 to 183 °C	COc1cc(OC)cc(-c2cc(C#N)c(=O)n(C)c2-c2c(F)cc(F)cc2F)c1 [Compound 67, 1,2-dihydro-5-(3,5-dimethoxyphenyl)-1-methyl-2-oxo-6-(2,4,6-trifluorophenyl)-3-pyridinecarbonitrile]	100%	84%	92%	100%	98%	98%	–	–	–	–	–	–	–
148 to 151 °C	COc1cc(OC)cc(-n2nc(C)c(=O)c(C)c2-c2ccc(F)cc2Cl)c1 [Compound 97, 6-(2-chloro-4-fluorophenyl)-3,5-dimethyl-1-(3,5-dimethoxyphenyl)-4(1H)-pyridazinone]	100%	99%	100%	100%	100%	96%	–	–	–	–	–	–	–
106 to 108 °C	COc1ccc(Cl)c(-c2cc(C)nc(C)c2-c2ccc(F)cc2Cl)c1 [Compound 138, 3-(2-chloro-4-fluorophenyl)-4-(2-chloro-5-methoxyphenyl)-2,6-dimethylpyridine]	–	–	–	–	–	–	–	–	–	–	–	–	–
–	Cc1c(-c2ccc(F)cc2Cl)c(-c2nn(C)cc2Cl)nn(C)c1=O [Compound 22]	–	–	–	–	–	–	94%	98%	53%	93%	0%	94%	–
–	COc1cc(OC)c(Cl)c(-n2nc(CF)c(=O)c(C)c2-c2ccc(F)cc2Cl)c1 [Compound 85]	–	–	–	–	–	–	100%	99%	100%	100%	100%	93%	–
–	COc1cc(OC)c(Cl)c(-n2nc(C#N)c(=O)c(C)c2-c2ccc(F)cc2Cl)c1 [Compound 83]	–	–	–	–	–	–	99%	98%	100%	100%	100%	94%	–
–	COc1ccc(Cl)c(-n2nc(Br)c(=O)cc2-c2ccc(F)cc2Cl)c1 [Compound 136]	–	–	–	–	–	–	82%	68%	0%	99%	0%	99%	–
–	COc1cc(OC)cc(-c2c(-c3c(F)cc(F)cc3F)noc(=O)c2C)c1 [Compound 60]	–	–	–	–	–	–	82%	96%	75%	99%	62%	87%	–
–	COc1ccc(Cl)c(-c2cc(C#N)c(=O)n(C)c2-c2ccc(F)cc2Cl)c1 [Compound 154]	–	–	–	–	–	–	100%	35%	59%	98%	0%	98%	–
–	CCn1c(-c2c(F)cc(F)cc2F)c(-c2cc(OC)c(Cl)c(OC)c2)cc(C#N)c1=O [Compound 72]	–	–	–	–	–	–	93%	21%	77%	98%	0%	90%	–
–	CCc1nc(C)nc(-c2cc(OC)cc(OC)c2Cl)c1-c1ccc(F)cc1Cl [Compound 56, 4-(2-chloro-3,5-dimethoxyphenyl)-5-(2-chloro-4-fluorophenyl)-6-ethyl-2-methylpyrimidine]	100%	100%	88%	100%	91%	94%	–	–	–	–	–	–	–
–	Cc1c(-c2ccc(F)cc2Cl)c(-c2ccc(Cl)s2)nn(C)c1=O [Compound 10]	–	–	–	–	–	–	100%	96%	12%	68%	16%	96%	–
–	Cc1cscc1-c1nn(C)c(=O)c(C)c1-c1ccc(F)cc1Cl [Compound 14]	–	–	–	–	–	–	100%	97%	72%	99%	94%	96%	–
–	COc1cc(OC)c(Cl)c(-n2c(-c3ccc(F)cc3Cl)c(C)c(=O)n(C)c2=O)c1 [Compound 37, 1-(2-chloro-3,5-dimethoxyphenyl)-6-(2-chloro-4-fluorophenyl)-3,5-dimethyl-2,4(1H,3H)-pyrimidinedione]	100%	98%	77%	100%	53%	95%	–	–	–	–	–	–	–
–	COc1cc(OC)cc(-c2cc(C#N)c(=O)n(C)c2-c2ccc(F)cc2Cl)c1 [Compound 158]	–	–	–	–	–	–	0%	0%	0%	68%	0%	40%	–
–	Cn1nc(-c2ccsc2)c(-c2c(F)cccc2F)cc1=O [Compound 1]	–	–	–	–	–	–	–	–	–	–	–	–	Test A disease control rating (Zymoseptoria tritici; 250 ppm): 0%; Test C disease control rating ([1]; 250 ppm): 0%; Test D disease control rating (Phakopsora pachyrhizi; 250 ppm): 65%; Test B disease control rating ([2]; 250 ppm): 0%; Test F disease control rating (Alternaria solani; 250 ppm): 0%; Test E disease control rating (Botrytis cinerea; 250 ppm): 0%
